In patent US20250099517A1, “Use of Lactobacillus reuteri Y7 strain for prevention or treatment of ocular diseases” (Taipei Medical University, priority 2023, published 2025):

Assay: body weights of mice during the experiment
Format: in vivo, C57BL/6 mice
Conditions: LU, lutein 6.15 mg/kg bw oral daily, blue light, mean±S.E.M., in g (unit assumed)
Description: In the present invention, six-week-old male C57BL/6 mice were placed in a breeding cage in which the following feeding conditions were kept: temperature, 22±2° C., humidity, 55±5%, and the light-dark cycle of 12-hour light and 12-hour dark. The mice were fed with fodders at the adaptive phase for one week; general solid fodders for test animals were administered to mice of the control group and mice during the adaptive phase. The initial day was defined as Day 0 when the adaptive phase for the mice was over. From the next week, the mice were interfered with samples under test and exposed to blue light. During the experiments, the mice were monitored for weights as well as water intakes and checked for any physiological change. The data for experiments through electroretinography (ERG), fndus photography (FP), fundus fluorescein angiograph (FFA), spectral-domain optical coherence tomography (SD-OCT) and intraocular pressure (IOP) were collected at Day 0, Day 21 and Day 35, as shown in FIG. 1 for the experimental process. The C57BL/6 mice, which weighed between 23 and 25 g, were divided into seven groups randomly. In each group, the six mice induced by blue light successfully were incorporated in experiments. The samples dissolved in deuterium-depleted water (DDW) were fed to mice through oral tubes once a day. The groups were named and introduced as follows: • (1) Solvent not classified group (NC): The mice were fed with 0.2 ml deuterium-depleted water (DDW) through tubes; • (2) Negative control group (Blue light (BL)): The mice were fed with 0.2 ml deuterium-depleted water (DDW) through tubes and exposed to blue light; • (3) Low-dosage Y7 probiotics group […]): The mice were fed with low-dosage Y7 probiotics (probiotic counts of 1.0×10^8 CFU/ml dissolved in 0.2 ml DDW per day) and exposed to blue light; • (4) High-dosage Y7 probiotics group […]): The mice were fed with high-dosage Y7 probiotics (probiotic counts of 1.0×10^9 CFU/ml dissolved in 0.2 ml DDW per day) and exposed to blue light; • (5) Positive control group (lutein (LU)): The mice were fed with lutein and exposed to blue light. The recommended human dosage of lutein is 30 mg. The mouse cage (48×25×20 cm) placed inside a stainless ventilated box was equipped with blue light boards as blue light sources around and above. In the experiment of animals exposed to blue light, six-week-old mice staying in the mouse cage were fed with drinking water as well as fodders and exposed to 400 Lux blue light illumination under the light-dark cycle of 12-hour light and 12-hour dark. The experiment was aimed at causing mice' late dry macular disease induced by chronic light injuries for simulating a human being's macular disease after long-term exposure to short-wavelength blue light from 3C products in daily life. All data written as the form of mean±standard error of the mean (S.E.M.) were used in the statistical analysis through the one-way ANOVA and the Newman-Keuls test; p<0.05 denoted statistical difference. In the experiment, the software for the statistical analysis was Graph pad Prism (v9.2.0). The data such as food intake, water intake, body weight, organ weight and other clinical examination data were analyzed with the one-way ANOVA.

SMILES: CC1=C[C@H](O)CC(C)(C)[C@H]1/C=C/C(C)=C/C=C/C(C)=C/C=C/C=C(C)/C=C/C=C(C)/C=C/C1=C(C)C[C@@H](O)CC1(C)C [lutein, reference compound]
- body weights of mice (Day 0): 21.25 ± 1.52
- body weights of mice (Day 7): 21.35 ± 1.97
- body weights of mice (Day 14): 22.12 ± 2.09
- body weights of mice (Day 21): 22.12 ± 2.09
- body weights of mice (Day 28): 22.40 ± 1.97
- body weights of mice (Day 35): 22.88 ± 2.86
